Values after ≈ are worked out from the molar mass of the structure shown. Where two headings read alike, the source gives them in different places.
Assays:
[1] = target: T1, full-length beta-Catenin (Uniprot ID P35222) (Homo sapiens, UniProt P35222); experiment: Fluorescence polarization IC50 (beta-catenin / 5FAM-TCF4 10-53 competition); type: binding
T1 construct: 10 nM full-length beta-Catenin (Uniprot ID P35222)
T1 sequence (P35222 1-781): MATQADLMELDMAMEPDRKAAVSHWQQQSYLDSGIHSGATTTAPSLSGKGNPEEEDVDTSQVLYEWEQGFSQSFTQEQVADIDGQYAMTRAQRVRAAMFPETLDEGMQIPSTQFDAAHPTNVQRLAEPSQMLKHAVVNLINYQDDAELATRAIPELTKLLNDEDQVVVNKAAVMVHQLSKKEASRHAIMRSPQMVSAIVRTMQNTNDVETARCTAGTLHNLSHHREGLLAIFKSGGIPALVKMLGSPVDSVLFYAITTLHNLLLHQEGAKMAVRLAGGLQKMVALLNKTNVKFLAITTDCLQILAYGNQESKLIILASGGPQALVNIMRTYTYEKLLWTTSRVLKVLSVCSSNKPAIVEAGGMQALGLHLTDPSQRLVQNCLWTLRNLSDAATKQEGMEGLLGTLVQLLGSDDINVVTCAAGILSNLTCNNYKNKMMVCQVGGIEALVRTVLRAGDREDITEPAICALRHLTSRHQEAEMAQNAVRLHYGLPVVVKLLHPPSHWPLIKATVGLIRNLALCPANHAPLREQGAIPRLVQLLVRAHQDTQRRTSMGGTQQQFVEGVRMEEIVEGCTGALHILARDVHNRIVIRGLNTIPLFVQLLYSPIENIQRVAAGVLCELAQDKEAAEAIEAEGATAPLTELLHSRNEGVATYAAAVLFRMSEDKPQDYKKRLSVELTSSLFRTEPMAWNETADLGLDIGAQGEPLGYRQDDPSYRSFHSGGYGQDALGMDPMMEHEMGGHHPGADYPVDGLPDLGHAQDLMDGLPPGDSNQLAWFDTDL

Solubility in PBS = type: physicochemical
Procedure, shortened: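 HPLC quantitation of peptide remaining in the PBS supernatant after ultracentrifugation, referenced to a 50 μM solution in DMSO.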

CHI Log D procedure = type: physicochemical; conditions: for CHI Log D: pH 7.4; for chromatographic logD: pH 7.4, CHI Log D
[2] = fluorescence polarization, read-out: beta-Catenin FP IC50

With CC[C@H](C)[C@@H]1NC(=O)[C@H](CC(=O)O)NC(=O)[C@]2(CC=CCCCC3(CCCC=CCCCCCC[C@@](C)(C(=O)N[C@@H](Cc4ccsc4)C(=O)N[C@@H](Cc4csc5ccccc45)C(N)=O)NC(=O)[C@H](CC(N)=O)NC(=O)[C@H](Cc4ccccc4)NC(=O)[C@H](C)NC(=O)[C@H](C)NC(=O)[C@H](CCC(=O)O)NC(=O)[C@H](CC(=O)O)NC3=O)NC1=O)CCCN2C(C)=O (stereo partly drawn) [I-720, Ac-PL3-Asp-Ile-B5-Asp-Glu-Ala-Ala-Phe-Asn-S8-3Thi-BztA-NH2] the IC50 [1, 2] was 0.075 µM, the IC50 ([1]; read-out: FP EC50) was 0.075 µM and the “Solubility” value (Solubility in PBS) was 33 µM (≈ 57.7 µg/mL). For the same molecule, the “CHI Log D” value (CHI Log D procedure) was 2.665.

For CC(=O)N1CCC[C@]12CC=CCCCC1(CCCC=CCOC(=O)N(C)CCC[C@@](C)(C(=O)N[C@@H](Cc3cccc(F)c3)C(=O)N[C@@H](Cc3csc4ccccc34)C(=O)N[C@@H](CCC(N)=O)C(N)=O)NC(=O)[C@H](C(C)C)NC(=O)[C@H](Cc3ccccc3)NC(=O)[C@H](C)NC(=O)[C@H](C)NC(=O)[C@H](Cc3c[nH]cn3)NC(=O)[C@H](CC(=O)O)NC1=O)NC(=O)[C@H](C)NC(=O)[C@H](CC(=O)O)NC2=O (stereo partly drawn) [I-398, Ac-PL3-Asp-Ala-B5-Asp-His-Ala-Ala-Phe-Val-SeN-3FF-BztA-Gln-NH2], the IC50 [1, 2] was 2.15 µM, the Solubility (Solubility in PBS; Solubility (uM)) was 46 µM (≈ 86.6 µg/mL) and the chromatographic logD (CHI Log D procedure) was 1.85.

With CC[C@H](C)[C@@H]1NC(=O)[C@H](CC(=O)O)NC(=O)[C@]2(CC=CCCCC3(CCCC=CCCCCCC[C@@](C)(C(=O)N[C@@H](Cc4ccccc4)C(=O)N[C@@H](Cc4csc5ccccc45)C(=O)N[C@@H](CCC(N)=O)C(N)=O)NC(=O)[C@H](CCC(N)=O)NC(=O)[C@H](Cc4ccccc4)NC(=O)[C@H](C)NC(=O)[C@H](C)NC(=O)[C@H](CCC(=O)O)NC(=O)[C@H](CC(=O)O)NC3=O)NC1=O)CCCN2C(=O)Cc1ccccc1 (stereo partly drawn) [I-601, Bnc-PL3-Asp-Ile-B5-Asp-Glu-Ala-Ala-Phe-Gln-S8-Phe-BztA-Gln-NH2] the IC50 ([1]; read-out: FP EC50) was 0.419 µM, the IC50 ([1]; read-out: beta-Catenin FP IC50, fluorescence polarization) was 0.419 µM and the “Solubility” value (Solubility in PBS) was 43 µM (≈ 84.2 µg/mL). The “CHI Log D” value (CHI Log D procedure) was 2.748.

In the case of CC[C@H](C)[C@@H]1NC(=O)[C@H](CC(=O)O)NC(=O)[C@]2(CC=CCCCC3(CCCC=CCCCCCC[C@@](C)(C(=O)N[C@@H](Cc4ccsc4)C(=O)N[C@@H](Cc4csc5ccccc45)C(=O)N[C@@H](Cc4c[nH]cn4)C(N)=O)NC(=O)[C@H](CC(N)=O)NC(=O)[C@H](Cc4ccccc4)NC(=O)[C@H](C)NC(=O)[C@H](C)NC(=O)[C@H](CC(=O)O)NC(=O)[C@H](CC(=O)O)NC3=O)NC1=O)CCCN2C(C)=O (stereo partly drawn) [I-556, Ac-PL3-Asp-Ile-B5-Asp-Asp-Ala-Ala-Phe-Asn-S8-3Thi-BztA-His-NH2], the IC50 [1, 2] is reported as 0.02 µM, the IC50 ([1]; read-out: FP EC50) is reported as 0.02 µM and the “Solubility” value (Solubility in PBS) is reported as 39 µM (≈ 72.9 µg/mL). For the same molecule, the “CHI Log D” value (CHI Log D procedure) was 2.435.

In the case of CC(=O)N1CCC[C@]12CC=CCCCC1(CCCC=CCCCOC(=O)N3CC[C@@](C(=O)N[C@@H](Cc4ccsc4)C(=O)N[C@@H](Cc4csc5ccccc45)C(=O)N[C@@H](CO)C(N)=O)(C3)NC(=O)[C@H](CC(N)=O)NC(=O)[C@H](Cc3ccccc3)NC(=O)[C@H](C)NC(=O)[C@H](C)NC(=O)[C@H](CN(CC(=O)O)CC(F)(F)F)NC(=O)[C@H](CC(=O)O)NC1=O)NC(=O)[C@H](CC(C)(C)C)NC(=O)[C@H](CC(=O)O)NC2=O (stereo partly drawn) [I-941, Ac-PL3-Asp-Npg-B5-Asp-TfeGA-Ala-Ala-Phe-Asn-PyrS2-3Thi-BztA-Ser-NH2], the IC50 ([1]; fluorescence polarization, beta-catenin, read-out: FP EC50) is reported as 2.11 µM, the IC50 ([1]; read-out: beta-Catenin FP IC50) is reported as 2.11 µM and the “Solubility” value (Solubility in PBS) is reported as 46 µM (≈ 91.5 µg/mL). The “CHI Log D” value (CHI Log D procedure) was 2.011.

In the case of CC[C@H](C)[C@@H]1NC(=O)[C@H](CC(=O)O)NC(=O)[C@]2(CC=CCCCC3(CCCC=CCCCCCC[C@@](C)(C(=O)N[C@@H](Cc4ccccc4)C(=O)N[C@@H](Cc4csc5ccccc45)C(=O)N[C@@H](CCC(N)=O)C(N)=O)NC(=O)[C@H](CCC(N)=O)NC(=O)[C@H](c4ccccc4)NC(=O)[C@H](C)NC(=O)[C@H](C)NC(=O)[C@H](CCC(=O)O)NC(=O)[C@H](CC(=O)O)NC3=O)NC1=O)CCCN2C(C)=O (stereo partly drawn) [I-726, Ac-PL3-Asp-Ile-B5-Asp-Glu-Ala-Ala-Phg-Gln-S8-Phe-BztA-Gln-NH2], the IC50 [1, 2] is reported as 5 µM, the Solubility (Solubility in PBS; Solubility (uM)) is reported as 43 µM (≈ 80.4 µg/mL) and the chromatographic logD (CHI Log D procedure) is reported as 2.34.

In the case of CC(=O)N1CCC[C@]12CC=CCCCC1(CCCC=CCCCCCC[C@@](C)(C(=O)N[C@@H](Cc3ccccc3)C(=O)N[C@@H](Cc3csc4ccccc34)C(N)=O)NC(=O)[C@H](CCCNC(N)=O)NC(=O)[C@H](Cc3ccccc3)NC(=O)[C@H](C)NC(=O)[C@H](C)NC(=O)[C@H](CCC(=O)O)NC(=O)[C@H](CC(=O)O)NC1=O)NC(=O)[C@H](CC(C)C)NC(=O)[C@H](CC(=O)O)NC2=O (stereo partly drawn) [I-628, Ac-PL3-Asp-Leu-B5-Asp-Glu-Ala-Ala-Phe-Cit-S8-Phe-BztA-NH2], the IC50 [1, 2] is reported as 0.06 µM, the IC50 ([1]; read-out: FP EC50) is reported as 0.713 µM and the “Solubility” value (Solubility in PBS) is reported as 47 µM (≈ 83.9 µg/mL). For the same molecule, the “CHI Log D” value (CHI Log D procedure) was 3.103.

With CC(=O)N1CCC[C@]12CC=CCCCC1(CCCC=CCCCCCC[C@@](C)(C(=O)N[C@@H](Cc3ccccc3)C(=O)N[C@@H](Cc3csc4ccccc34)C(=O)N[C@@H](CCC(N)=O)C(N)=O)NC(=O)[C@H](CC(N)=O)NC(=O)[C@H](Cc3ccsc3)NC(=O)[C@H](C)NC(=O)[C@H](C)NC(=O)[C@H](CCC(=O)O)NC(=O)[C@H](CC(=O)O)NC1=O)NC(=O)[C@H](C)NC(=O)[C@H](CC(=O)O)NC2=O (stereo partly drawn) [I-448, Ac-PL3-Asp-Ala-B5-Asp-Glu-Ala-Ala-3Thi-Asn-S8-Phe-BztA-Gln-NH2] the IC50 [1, 2] was 0.092 µM, the IC50 ([1]; read-out: FP EC50) was 0.092 µM and the “Solubility” value (Solubility in PBS) was 50 µM (≈ 91.7 µg/mL). For the same molecule, the “CHI Log D” value (CHI Log D procedure) was 1.976.

Work on CC(=O)N1CCC[C@]12CC=CCCCC1(CCCC=CCCCOC(=O)N3CC[C@@](C(=O)N[C@@H](Cc4ccsc4)C(=O)N[C@@H](Cc4csc5ccccc45)C(=O)N[C@@H](CCC(N)=O)C(N)=O)(C3)NC(=O)[C@H](CC(N)=O)NC(=O)[C@H](Cc3ccccc3)NC(=O)[C@H](CCCCNC(=O)c3ccc(CN(C)C)cc3)NC(=O)[C@H](C)NC(=O)[C@H](CC(=O)O)NC(=O)[C@H](CC(=O)O)NC1=O)NC(=O)[C@H](CC(C)(C)C)NC(=O)[C@H](CC(=O)O)NC2=O (stereo partly drawn) [I-891, Ac-PL3-Asp-Npg-B5-Asp-Asp-Ala-[Me2NCBz]Lys-Phe-Asn-PyrS2-3Thi-BztA-Gln-NH2] yielded an IC50 ([1]; read-out: beta-Catenin FP IC50) of 0.013 µM, a Solubility (Solubility in PBS; Solubility (uM)) of 42 µM (≈ 89.7 µg/mL) and a chromatographic logD (CHI Log D procedure) of 1.53.

In the case of CC(=O)N1CCC[C@]12CC=CCCCC1(CCCC=CCCCCOC(=O)N3CC[C@@](C(=O)N[C@@H](Cc4ccsc4)C(=O)N[C@@H](Cc4csc5ccccc45)C(=O)N[C@@H](Cc4c[nH]cn4)C(N)=O)(C3)NC(=O)[C@H](CC(N)=O)NC(=O)[C@H](Cc3ccccc3)NC(=O)[C@H](C)NC(=O)[C@H](C)NC(=O)[C@H](CC(=O)O)NC(=O)[C@H](CC(=O)O)NC1=O)NC(=O)[C@H](CC(C)(C)C)NC(=O)[C@H](CC(=O)O)NC2=O (stereo partly drawn) [I-776, Ac-PL3-Asp-Npg-B5-Asp-Asp-Ala-Ala-Phe-Asn-PyrS3-3Thi-BztA-His-NH2], the IC50 ([1]; read-out: beta-Catenin FP IC50) is reported as 0.005 µM, the “Solubility” value (Solubility in PBS) is reported as 41 µM (≈ 79.6 µg/mL) and the “CHI Log D” value (CHI Log D procedure) is reported as 2.137.

In the case of CO[C@H](C)[C@@H]1NC(=O)[C@H](CC(=O)O)NC(=O)[C@]2(CC=CCCCC3(CCCC=CCCCCCC[C@@](C)(C(=O)N[C@@H](Cc4ccccc4)C(=O)N[C@@H](Cc4csc5ccccc45)C(=O)N[C@@H](CCC(N)=O)C(N)=O)NC(=O)[C@H](CCC(N)=O)NC(=O)[C@H](Cc4ccccc4)NC(=O)[C@H](C)NC(=O)[C@H](C)NC(=O)[C@H](CCC(=O)O)NC(=O)[C@H](CC(=O)O)NC3=O)NC1=O)CCCN2C(C)=O (stereo partly drawn) [I-542, Ac-PL3-Asp-TOMe-B5-Asp-Glu-Ala-Ala-Phe-Gln-S8-Phe-BztA-Gln-NH2], the IC50 [1, 2] is reported as 0.109 µM, the IC50 ([1]; read-out: FP EC50) is reported as 0.109 µM and the “Solubility” value (Solubility in PBS) is reported as 39 µM (≈ 73.5 µg/mL). For the same molecule, the “CHI Log D” value (CHI Log D procedure) was 2.135.

Source: US20240116985A1, “STAPLED PEPTIDES AND METHODS THEREOF” (priority 2020, published 2024)
